Experimental findings from US12570642B2, “GLP-IR modulating compounds” (Gilead Sciences, Inc., priority 2021, dated 2026) are described below.

pEC50: −log10 of the molar value.

For orientation: pEC50 means the negative decadic logarithm of the EC50, by convention in mol/L. Lower therefore signals a large EC50.

In the assay the target is GLP-1R (Homo sapiens, UniProt P43220). The experiment in a line: GLP-1R Activation - cAMP Assay. In kind it is cell-based. Particulars: cAMP increase in CHO cells stably expressing GLP-1R; each compound run on one of the two cAMP assays (Assay 1 or Assay 2, not specified). In a few lines:
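CHO cells stably expressing GLP-1R, plated at 1,000 cells/well overnight, then equilibrated 1 h in HBSS with 20 mM Hepes and 0.1% BSA. Agonist added as 10-point dose response for 30 min at 37 °C. cAMP measured by HTRF (Cisbio Gs Dynamic kit); EC50 from sigmoidal fit.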

Sequence of GLP-1R (P43220 24-463): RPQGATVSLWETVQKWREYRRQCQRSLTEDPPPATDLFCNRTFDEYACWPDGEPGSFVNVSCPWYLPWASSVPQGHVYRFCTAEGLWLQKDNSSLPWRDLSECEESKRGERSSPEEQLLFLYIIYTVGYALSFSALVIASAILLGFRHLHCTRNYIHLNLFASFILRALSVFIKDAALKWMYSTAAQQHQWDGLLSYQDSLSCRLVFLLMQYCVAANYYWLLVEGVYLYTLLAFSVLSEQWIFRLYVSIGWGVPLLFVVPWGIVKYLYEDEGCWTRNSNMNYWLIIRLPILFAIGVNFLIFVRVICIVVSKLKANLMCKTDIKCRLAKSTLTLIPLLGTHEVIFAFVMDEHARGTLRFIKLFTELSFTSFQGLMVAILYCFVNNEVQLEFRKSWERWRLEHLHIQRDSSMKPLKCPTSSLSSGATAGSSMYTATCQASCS

Turning to `CC1(C)COC[C@H]1n1c(Cc2cc(F)c(-c3ccnc(OCc4ccc(Cl)cc4F)n3)cc2F)nc2ccc(C(=O)O)cc21` [Example 121, (S)-2-(4-(2-((4-chloro-2-fluorobenzyl)oxy)pyrimidin-4-yl)-2,5-difluorobenzyl)-1-(4,4-dimethyltetrahydrofuran-3-yl)-1H-benzo[d]imidazole-6-carboxylic Acid], the negative-log EC50 (pEC50) was 10.08.
For `N#Cc1ccc(COc2cccc(-c3cc(F)c(Cc4nc5ccc(C(=O)O)cc5n4[C@@H]4C[C@@H]4C(F)F)cc3F)n2)c(F)c1` [Example 4, 2-(4-(6-((4-cyano-2-fluorobenzyl)oxy)pyridin-2-yl)-2,5-difluorobenzyl)-1-((1R,2S)-2-(difluoromethyl)cyclopropyl)-1H-benzo[d]imidazole-6-carboxylic acid] the value was 8.58; for `CC1(C)COC[C@H]1n1c(Cc2c(F)cc(-c3ccc(F)c(OCc4ccc(C#N)cc4F)n3)c(F)c2F)nc2c(F)cc(C(=O)O)cc21` [Example 479, (S)-2-(4-(6-((4-cyano-2-fluorobenzyl)oxy)-5-fluoropyridin-2-yl)-2,3,6-trifluorobenzyl)-1-(4,4-dimethyltetrahydrofuran-3-yl)-4-fluoro-1H-benzo[d]imidazole-6-carboxylic acid], 9.60.
With `Cn1ncc2ccc(COc3cccc(-c4cc(F)c(Cc5nc6ccc(C(=O)O)cc6n5C[C@@H]5CCO5)cc4F)n3)cc21` [Example 524, (S)-2-(2,5-difluoro-4-(6-((1-methyl-1H-indazol-6-yl)methoxy)pyridin-2-yl)benzyl)-1-(oxetan-2-ylmethyl)-1H-benzo[d]imidazole-6-carboxylic acid] the figure was 9.22; with `CC1(C)COC[C@H]1n1c(Cc2cc(F)c(-c3cccc(OCc4ccc(Cl)cc4)n3)cc2F)nc2ccc(C(=O)O)cc21` (single isomer, unassigned) [Example 385A], 10.05; with `CC1(C)COC[C@H]1n1c(Cc2cc(F)c(-c3cccc(OCc4ccc(C#N)cc4)n3)cc2F)nc2cc(Cl)c(C(=O)O)cc21` [Example 397, (S)-5-chloro-2-(4-(6-((4-cyanobenzyl)oxy)pyridin-2-yl)-2,5-difluorobenzyl)-1-(4,4-dimethyltetrahydrofuran-3-yl)-1H-benzo[d]imidazole-6-carboxylic Acid], 9.26.
For `CO[C@]1(C)COC[C@@H]1n1c(Cc2cc(F)c(-c3cccc(OCc4ccc(C#N)cc4F)n3)cc2F)nc2ccc(C(=O)O)cc21` (single isomer, unassigned) [Example 311B, 2-[[4-[6-[(4-cyano-2-fluoro-phenyl)methoxy]-2-pyridyl]-2,5-difluoro-phenyl]methyl]-3-[4-methoxy-4-methyl-tetrahydrofuran-3-yl]benzimidazole-5-carboxylic Acid] the value was 9.80; for `CO[C@@H]1COCC1n1c(Cc2cc(F)c(-c3cccc(OCc4ccc(C#N)cc4F)n3)cc2F)nc2c(F)cc(C(=O)O)cc21` (mixture of isomers) [Example 256, 2-(4-(6-((4-cyano-2-fluorobenzyl)oxy)pyridin-2-yl)-2,5-difluorobenzyl)-4-fluoro-1-((4S)-4-methoxytetrahydrofuran-3-yl)-1H-benzo[d]imidazole-6-carboxylic acid], 9.93.
Molecule `COCCn1c(Cc2c(F)cc(-c3ccc(F)c(OCc4cnc(-n5ccnn5)cc4Cl)n3)c(F)c2F)nc2c(F)cc(C(=O)O)cc21` [Example 213, 2-(4-(6-((4-chloro-6-(1H-1,2,3-triazol-1-yl)pyridin-3-yl)methoxy)-5-fluoropyridin-2-yl)-2,3,6-trifluorobenzyl)-4-fluoro-1-(2-methoxyethyl)-1H-benzo[d]imidazole-6-carboxylic acid] had a negative-log EC50 (pEC50) of 10.38.
With `N#Cc1ccc(COc2cccc(-c3cc(F)c(Cc4nc5ccc(C(=O)O)cc5n4[C@@H]4COC[C@@H]4C(F)F)cc3F)n2)c(F)c1` (racemic) [Example 267, 2-(4-(6-((4-cyano-2-fluorobenzyl)oxy)pyridin-2-yl)-2,5-difluorobenzyl)-1-((4R)-4-(difluoromethyl)tetrahydrofuran-3-yl)-1H-benzo[d]imidazole-6-carboxylic acid] the figure was 10.26.
For `CC1(C)COC[C@H]1n1c(Cc2c(F)cc(-c3ccc(F)c(OCc4ccc(Cl)cc4F)n3)c(F)c2F)nc2ccc(C(=O)O)cc21` [Example 335, (S)-2-(4-(6-((4-chloro-2-fluorobenzyl)oxy)-5-fluoropyridin-2-yl)-2,3,6-trifluorobenzyl)-1-(4,4-dimethyltetrahydrofuran-3-yl)-1H-benzo[d]imidazole-6-carboxylic acid] the value was 9.51; for `COCCn1c(Cc2ccc(-c3cccc(OCc4ccc(C#N)cc4F)c3)nc2)nc2ccc(C(=O)O)cc21` [Example 46], 7.68.
For `CC1(C)COC[C@H]1n1c(Cc2cc(F)c(-c3cccc(OCc4ccc(Cl)cc4)n3)cc2F)nc2ccc(C(=O)O)nc21` [Example 438, (S)-2-(4-(6-((4-chlorobenzyl)oxy)pyridin-2-yl)-2,5-difluorobenzyl)-3-(4,4-dimethyltetrahydrofuran-3-yl)-3H-imidazo[4,5-b]pyridine-5-carboxylic acid] the value was 9.28; for `CC1(C)COC[C@@H]1n1c(Cc2cc(F)c(-c3cccc(OCc4ncc(Cl)cc4F)n3)cc2F)nc2ccc(C(=O)O)cc21` (single isomer, unassigned) [Example 289B], 9.03.
Turning to `N#Cc1ccc(COc2cccc(-c3cc(F)c(Cc4nc5ccc(C(=O)O)cc5n4[C@@H]4CCOC4)cc3F)n2)c(F)c1` [Example 5, (R)-2-(4-(6-((4-cyano-2-fluorobenzyl)oxy)pyridin-2-yl)-2,5-difluorobenzyl)-1-(tetrahydrofuran-3-yl)-1H-benzo[d]imidazole-6-carboxylic acid], the negative-log EC50 (pEC50) was 9.11. The pEC50 values of the last two molecules are within 0.2 log units of each other.
For `N#Cc1ccc(COc2cccc(-c3cc(F)c(Cc4nc5ccc(C(=O)O)cc5n4N4CCCC4)cc3F)n2)c(F)c1` [Example 67, 2-(4-(6-((4-cyano-2-fluorobenzyl)oxy)pyridin-2-yl)-2,5-difluorobenzyl)-1-(pyrrolidin-1-yl)-1H-benzo[d]imidazole-6-carboxylic Acid] the value was 8.14; for `COCCn1c(Cc2c(F)cc(-c3ccc(F)c(OCc4cnc(-n5ccnn5)cc4Cl)n3)c(F)c2F)nc2ccc(C(=O)O)cc21` [Example 392, 2-(4-(6-((4-chloro-6-(1H-1,2,3-triazol-1-yl)pyridin-3-yl)methoxy)-5-fluoropyridin-2-yl)-2,3,6-trifluorobenzyl)-1-(2-methoxyethyl)-1H-benzo[d]imidazole-6-carboxylic acid], 10.44.
For `Cc1cc(Cc2nc3c(F)cc(C(=O)O)cc3n2C[C@@H]2CCO2)c(Cl)cc1-c1ccc(F)c(OCc2ccc(C#N)cc2F)n1` [Example 142, (S)-2-(2-chloro-4-(6-((4-cyano-2-fluorobenzyl)oxy)-5-fluoropyridin-2-yl)-5-methylbenzyl)-4-fluoro-1-(oxetan-2-ylmethyl)-1H-benzo[d]imidazole-6-carboxylic Acid] the value was 9.05; for `COC[C@H]1COC[C@H]1n1c(Cc2cc(F)c(-c3ccc(F)c(OCc4ccc(Cl)cc4)n3)cc2F)nc2ccc(C(=O)O)cc21` [Example 545, 2-(4-(6-((4-chlorobenzyl)oxy)-5-fluoropyridin-2-yl)-2,5-difluorobenzyl)-1-((3S,4S)-4-(methoxymethyl)tetrahydrofuran-3-yl)-1H-benzo[d]imidazole-6-carboxylic acid], 10.36; for `C[C@H]1OCC[C@H]1n1c(Cc2cc(F)c(-c3cccc(OCc4ccc(C#N)cc4F)n3)cc2F)nc2ccc(C(=O)O)cc21` (racemic) [Example 73, 2-(4-(6-((4-cyano-2-fluorobenzyl)oxy)pyridin-2-yl)-2,5-difluorobenzyl)-1-((2R,3R)-2-methyltetrahydrofuran-3-yl)-1H-benzo[d]imidazole-6-carboxylic Acid], 8.62.
With `N#Cc1ccc(COc2cccc(-c3cc(F)c(Cc4nc5ccc(C(=O)O)cc5n4[C@H]4COC[C@@H]4C4CC4)cc3F)n2)c(F)c1` [Example 189, 2-(4-(6-((4-cyano-2-fluorobenzyl)oxy)pyridin-2-yl)-2,5-difluorobenzyl)-1-((3R,4R)-4-cyclopropyltetrahydrofuran-3-yl)-1H-benzo[d]imidazole-6-carboxylic acid] the figure was 9.83.
`COC[C@H]1COC[C@H]1n1c(Cc2cc(F)c(-c3ccc(F)c(OCc4ccc(C#N)cc4)n3)cc2F)nc2ccc(C(=O)O)cc21` [Example 467, 2-(4-(6-((4-cyanobenzyl)oxy)-5-fluoropyridin-2-yl)-2,5-difluorobenzyl)-1-((3S,4S)-4-(methoxymethyl)tetrahydrofuran-3-yl)-1H-benzo[d]imidazole-6-carboxylic acid] had a pEC50 of 10.11.
With `COCCn1c(C(F)c2cc(F)c(-c3cccc(OCc4ccc(C#N)cc4F)n3)cc2F)nc2ccc(C(=O)O)cc21` (stereo not shown) [Example 51] the figure was 9.08; with `CC1(C)COC[C@H]1n1c(Cc2cc(F)c(-c3ccnc(OCc4ccc(C#N)cc4)n3)cc2F)nc2ccc(C(=O)O)cc21` [Example 193, (S)-2-(4-(2-((4-cyanobenzyl)oxy)pyrimidin-4-yl)-2,5-difluorobenzyl)-1-(4,4-dimethyltetrahydrofuran-3-yl)-1H-benzo[d]imidazole-6-carboxylic acid], 9.88; with `CC1(C)COC[C@H]1n1c(Cc2ccc(-c3ccc(F)c(OCc4cnc(-n5ccnn5)cc4Cl)n3)cc2F)nc2ccc(C(=O)O)cc21` [Example 161, (S)-2-(4-(6-((4-chloro-6-(1H-1,2,3-triazol-1-yl)pyridin-3-yl)methoxy)-5-fluoropyridin-2-yl)-2-fluorobenzyl)-1-(4,4-dimethyltetrahydrofuran-3-yl)-1H-benzo[d]imidazole-6-carboxylic Acid], 10.82.
